Measurements published in BigSolDB 2.1.

O=[N+]([O-])c1cn[nH]c1
solubility (mole fraction)
Conditions	in acetonitrile	in ethanol	in methanol	in water
278.15 K	0.0478	0.037	0.0491	0.00209
280.65 K	0.0491	0.0389	0.0502	0.00218
283.15 K	0.0508	0.0405	0.0517	0.00231
285.65 K	0.0524	0.0429	0.0532	0.00248
288.15 K	0.0541	0.045	0.0558	0.00268
290.65 K	0.0558	0.047	0.0583	0.00286
293.15 K	0.0576	0.0494	0.061	0.00315
295.65 K	0.0595	0.0521	0.0638	0.00339
298.15 K	0.0623	0.0549	0.067	0.0037
300.65 K	0.0648	0.0582	0.0698	0.00401
303.15 K	0.0674	0.0614	0.073	0.0044
305.65 K	0.0703	0.0647	0.0758	0.00477
308.15 K	0.0731	0.0677	0.0789	0.00526
310.65 K	0.0758	0.0714	0.0817	0.00586
313.15 K	0.079	0.0747	0.0848	0.00653
315.65 K	0.0828	0.0784	0.0885	0.00724
318.15 K	0.0872	0.0828	0.092	0.00802
